Laboratory results taken from the supplement of paper PMC10307832.

What was measured:
Experiment in all cases: relative viability (nuclei count vs DMSO), 5 days (fraction); higher = more cells survive
[1] = compound: CC1=CC(=C(N1C2=CC=C(C=C2)Cl)C)C(=O)CN3CCCCC3 [IU1-47] + COc1cc2c(Oc3ccc(NC(=O)C4(C(=O)Nc5ccc(F)cc5)CC4)cc3F)ccnc2cc1OCCCN1CCOCC1 [Foretinib] (partner 0.25 µM)
Summary of the method: (§1)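 The day after seeding in 1536-well plates, lung cancer cell lines were treated by pin tool with a single drug, or with a fixed anchor-drug dose together with five library-drug doses (not always all listed) in √10 steps. After 5 days, a combined fix-and-stain solution (final 0.05% Triton X-100, 1% formaldehyde, 1 ug/ml Hoechst) was added. Nuclei counted on 4× images gave relative viability as treated counts over vehicle counts, reported as the median of duplicate plates.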

[2] = compound: CC1=CC(=C(N1C2=CC=C(C=C2)Cl)C)C(=O)CN3CCCCC3 [IU1-47] + C[C@@H](Oc1cc(-c2cnn(C3CCNCC3)c2)cnc1N)c1c(Cl)ccc(F)c1Cl [Crizotinib] (partner 1 µM)
Summary of the method: as §1

[3] = compound: CC1=CC(=C(N1C2=CC=C(C=C2)Cl)C)C(=O)CN3CCCCC3 [IU1-47] + C[C@]1(O)C[C@@H](c2nc(-c3ccc4ccc(-c5ccccc5)nc4c3)c3c(N)nccn32)C1 [Linsitinib] (partner 1 µM)
Summary of the method: as §1

[4] = compound: Cc1nc(C(=O)NCC(=O)O)c(O)c2ccc(Oc3ccccc3)cc12 [FG-4592] + CS(=O)(=O)N1CCN(Cc2cc3nc(-c4cccc5[nH]ncc45)nc(N4CCOCC4)c3s2)CC1 [Pictilisib] (partner 1 µM)
Summary of the method: as §1

Cell Line	relative viability ([1]; first compound 0.08 µM)	relative viability ([1]; first compound 0.253 µM)	relative viability ([1]; first compound 0.8 µM)	relative viability ([1]; first compound 2.53 µM)	relative viability ([1]; first compound 8 µM)	relative viability ([2]; first compound 0.08 µM)	relative viability ([2]; first compound 0.253 µM)	relative viability ([2]; first compound 0.8 µM)	relative viability ([2]; first compound 2.53 µM)	relative viability ([2]; first compound 8 µM)	relative viability ([3]; first compound 0.08 µM)	relative viability ([3]; first compound 0.253 µM)	relative viability ([3]; first compound 0.8 µM)	relative viability ([3]; first compound 8 µM)	relative viability ([4]; first compound 0.08 µM)	relative viability ([4]; first compound 0.253 µM)	relative viability ([4]; first compound 0.8 µM)	relative viability ([4]; first compound 2.53 µM)	relative viability ([4]; first compound 8 µM)	relative viability ([3]; first compound 2.53 µM)
NCI-H1651	0.946	0.869	0.903	0.787	0.973	0.887	0.873	0.889	0.804	0.863	1.22	1.14	1	0.771	0.541	0.575	0.534	0.635	0.454	–
NCI-H441	0.873	1.15	0.986	1.13	0.864	0.778	0.887	0.813	0.889	0.775	0.703	0.49	0.594	0.44	0.585	0.524	0.509	0.483	0.464	0.438
LCLC-103H	0.786	0.864	0.846	0.73	0.865	1.15	1.06	1.06	1.05	1.09	1.07	1.07	1.18	1.3	0.5	0.512	0.509	0.714	0.654	1.07
LCLC-97TM1	0.957	1.02	0.892	0.725	0.856	0.461	0.339	0.458	–	0.323	0.177	0.228	0.168	0.175	0.22	0.192	0.138	–	0.169	–
NCI-H727	1.05	0.988	0.871	1.02	0.987	0.929	–	0.857	0.798	0.658	0.315	–	0.274	0.269	0.311	0.274	0.307	0.335	0.452	0.221
NCI-H1355	1.06	1.06	0.946	–	0.998	1.17	1.09	1.14	1	1.14	0.873	0.844	0.933	0.686	0.389	0.393	–	0.379	0.366	0.74
HOP-62	1.17	1.12	1.04	1.11	1.13	0.918	0.873	0.901	0.441	0.971	0.98	1.04	0.805	0.886	0.831	0.55	0.455	0.651	0.657	0.677
NCI-H2085	0.922	1.19	0.926	0.922	0.767	0.911	0.847	0.851	0.869	0.739	0.828	0.917	1.06	0.846	0.356	0.425	0.426	0.438	0.449	0.912
